Experimental data: patent US20230066011A1, “PYRROLOPYRIMIDINE DERIVATIVE, AND PHARMACEUTICAL COMPOSITION FOR PREVENTING OR TREATING PROTEIN KINASE-RELATED DISEASE COMPRISING SAME AS ACTIVE INGREDIENT” (VORONOI CO., LTD., priority 2019, published 2023)

What was measured:
human GST-CLK1 = biological target: T1, human GST-CLK1 (Homo sapiens, UniProt P49759); assay: GST-CLK1 enzyme inhibition, ADP-Glo kinase assay; assay type: biochemical; details: ATP 10 μM, GST-CLK1 129-end
T1 construct: purified human GST-CLK1 (129-end, SignalChem) enzyme; purchased SignalChem
T1 sequence (P49759 129-484 limits assumed): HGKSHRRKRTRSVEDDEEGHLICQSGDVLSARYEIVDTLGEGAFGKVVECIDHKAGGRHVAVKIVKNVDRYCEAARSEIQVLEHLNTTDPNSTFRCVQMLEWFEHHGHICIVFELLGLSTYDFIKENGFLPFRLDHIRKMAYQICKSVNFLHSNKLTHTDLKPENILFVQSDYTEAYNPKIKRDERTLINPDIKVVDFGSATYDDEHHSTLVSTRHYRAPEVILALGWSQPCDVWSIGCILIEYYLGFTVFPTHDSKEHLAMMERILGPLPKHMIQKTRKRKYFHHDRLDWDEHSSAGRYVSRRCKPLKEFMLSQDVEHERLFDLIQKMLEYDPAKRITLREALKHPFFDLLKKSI
Outline: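 ADP-Glo luminescence read-out, relative to untreated solvent control, gave IC50 (nM) from triplicate data sets. Reactions ran an hour at 25° C with 3 ng GST-CLK1 (residues 129-end), 10 μM ATP and specific substrate in Tris-HCl pH 7.4 buffer with MgCl2, BSA and DTT.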

DYRK1 = DYRK1 (Homo sapiens, UniProt Q13627); assay: Kinase HotSpot service (Reaction Biology Corporation), DYRK1; assay type: biochemical; details: ATP 10 uM, read-out: DYRK1 IC50 (values indicated by *)
Procedure: (§1) The inhibitory activities of the compounds were measured at a 3-fold concentration gradient starting from a maximum compound concentration of […], and the values measured using the Kinase HotSpot service (Reaction Biology Corporation) are indicated by an asterisk (*).
(§2) All the experimental methods were performed as provided by the Kinase HotSpot Customer Protocol (http://www.reactionbiology.com//Kinase_Assay_Protocol).

MDA-MB-468 cell line = assay: Inhibition of proliferation of MDA-MB-468 cancer cells (Cell Titer-Glo); assay type: cell-based
Outline: (§3)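 Growth inhibition over 72 h: cells seeded at 2,000/well and dosed at eleven 3-fold-spaced final concentrations from 10.000000 μM. Read-out is ATP luminescence (Cell Titer-Glo, 10 min, room temperature), with GI50 derived from it.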

LRRK2 [1] = biological target: T2, LRRK2 (Homo sapiens, UniProt Q5S007); assay: LRRK2 enzyme inhibition, ADP-Glo kinase assay; assay type: biochemical; parameters: purchased Invitrogen PR8604B; details: ATP 10 μM
Outline: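 ADP-Glo luminescent read-out of ADP formed by purified human LRRK2 enzyme (25 ng), 10 μM ATP, 0.2 μg substrate, 25° C for 2 h, Tris-HCl pH 7.4 buffer with MgCl2, BSA, DTT. Inhibition versus untreated solvent control over twelve final concentrations (50 μM downward) gives IC50.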
Target sequence in this assay (Q5S007 970-2527 limits assumed): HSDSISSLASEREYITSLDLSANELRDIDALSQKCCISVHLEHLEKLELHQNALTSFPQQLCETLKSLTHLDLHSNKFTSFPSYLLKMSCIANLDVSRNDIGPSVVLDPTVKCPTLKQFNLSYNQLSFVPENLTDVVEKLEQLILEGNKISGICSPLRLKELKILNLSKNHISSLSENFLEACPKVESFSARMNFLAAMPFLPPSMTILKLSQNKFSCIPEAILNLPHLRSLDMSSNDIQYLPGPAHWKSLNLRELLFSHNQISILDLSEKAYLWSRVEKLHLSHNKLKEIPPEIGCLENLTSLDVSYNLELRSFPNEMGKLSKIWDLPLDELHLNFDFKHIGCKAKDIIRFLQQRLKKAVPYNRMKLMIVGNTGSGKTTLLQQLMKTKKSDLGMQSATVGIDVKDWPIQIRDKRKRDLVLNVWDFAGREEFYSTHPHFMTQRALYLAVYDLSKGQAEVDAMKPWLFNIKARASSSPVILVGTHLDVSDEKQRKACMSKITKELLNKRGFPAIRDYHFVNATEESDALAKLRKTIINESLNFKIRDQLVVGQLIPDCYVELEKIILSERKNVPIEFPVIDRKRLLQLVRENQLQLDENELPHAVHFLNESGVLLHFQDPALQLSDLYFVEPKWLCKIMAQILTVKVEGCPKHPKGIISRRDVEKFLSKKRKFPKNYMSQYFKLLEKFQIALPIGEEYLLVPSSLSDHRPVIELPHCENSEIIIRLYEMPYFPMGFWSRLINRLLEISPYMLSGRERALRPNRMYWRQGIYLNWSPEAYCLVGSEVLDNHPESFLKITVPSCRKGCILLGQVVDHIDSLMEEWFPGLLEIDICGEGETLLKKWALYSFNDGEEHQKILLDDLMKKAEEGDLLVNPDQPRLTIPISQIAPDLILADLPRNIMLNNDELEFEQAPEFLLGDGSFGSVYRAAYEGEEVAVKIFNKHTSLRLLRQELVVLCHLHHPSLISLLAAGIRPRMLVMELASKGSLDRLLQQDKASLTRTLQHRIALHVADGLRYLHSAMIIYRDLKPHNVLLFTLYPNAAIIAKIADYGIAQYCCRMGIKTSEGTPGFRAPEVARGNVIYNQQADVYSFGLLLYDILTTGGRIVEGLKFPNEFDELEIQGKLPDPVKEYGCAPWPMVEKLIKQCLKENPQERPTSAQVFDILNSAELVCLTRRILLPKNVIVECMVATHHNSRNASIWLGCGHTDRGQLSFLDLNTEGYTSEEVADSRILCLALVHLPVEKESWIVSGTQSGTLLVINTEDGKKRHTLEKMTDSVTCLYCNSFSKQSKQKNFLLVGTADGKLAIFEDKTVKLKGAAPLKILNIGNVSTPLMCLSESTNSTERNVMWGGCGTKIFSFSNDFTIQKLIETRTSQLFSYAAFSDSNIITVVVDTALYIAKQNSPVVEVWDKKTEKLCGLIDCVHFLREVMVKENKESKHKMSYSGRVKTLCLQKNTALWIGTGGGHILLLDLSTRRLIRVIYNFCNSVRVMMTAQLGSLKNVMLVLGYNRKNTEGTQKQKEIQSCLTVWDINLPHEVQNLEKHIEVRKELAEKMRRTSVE

human GST-DYRK1A = biological target: T3, human GST-DYRK1A (Homo sapiens, UniProt Q13627); assay: GST-DYRK1A enzyme inhibition, ADP-Glo kinase assay; assay type: biochemical; details: ATP 10 μM, GST-DYRK1A full length, read-out: DYRK1 IC50
T3 construct: purified human GST-DYRK1A (full length, Thermo Scientifics) enzyme; purchased Thermo Scientifics
Outline: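 Full-length enzyme (10 ng) was incubated with 10 μM ATP and a specific substrate for 1 h at 25 °C in 40 mM Tris-HCl pH 7.4, 20 mM MgCl2, 0.5 mg/mL BSA, 50 μM DTT. Luminescence was read against a solvent control, and IC50 values were derived from 3 data sets.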

IL-6 = assay: Inhibition of LPS-induced IL-6 secretion of THP-1 monocytes (ELISA); assay type: cell-based, human; details: compound 0.5 μM, LPS 500 ng/mL, 24 hours
Procedure: (§4) To evaluate an inhibitory effect on cytokine secretion of monocytes, THP-1 cells (ATCC, #TIB-202) as a human-derived monocyte line were cultured in an RPMI-1640 (Hyclone, SH30027.01) medium supplemented with 10% fetal bovine serum (Hyclone, SH30084.03), 1% penicillin streptomycin (Welgene, LS202-02), and 50 μM 2-mercaptoethanol (Gibco, #21985023). In the test, the cells were seeded in a 48-well plate (SPL, #30048) at a density of 1.5 to 2×10^5 cells/250 μL per well, and cultured at 37° C. for 16 hours in a 5% CO2 incubator. Thereafter, the compound was diluted with DMSO so that the final concentration of the compound was 0.5 μM. Then, the cells were treated with the diluted compound before an hour of treatment with lipopolysaccharides (LPS) (Sigma, #L6529). After the treatment with the compound, the cells were treated with LPS so that the final concentration was 500 ng/mL. Then, a cell culture broth was collected after 24 hours of culture, and levels of cytokine IL-6 (R&D Systems, #D6050) and TNF-α (R&D Systems, #DTA00D) comprised in the culture broth were measured using respective ELISA kits. After an experiment was performed according to the manufacturer's guidelines, cell analysis was performed by measuring the optical density at 450 nm using a microplate reader.

TNF-α = assay: Inhibition of LPS-induced TNF-α secretion of THP-1 monocytes (ELISA); assay type: cell-based, human; details: compound 0.5 μM, LPS 500 ng/mL, 24 hours
Procedure: as §4

human DYRK1A and tau = assay: Inhibition of tau phosphorylation, ClariCELL Kinase Cell-Based Assay, HEK 293 cells expressing human DYRK1A and tau; details: for inhibition at 1 µM: HEK293, read-out: % inhibition at 1 uM, tau phosphorylation, compound 1 uM; for inhibition at 0.25 µM / inhibition at 0.5 µM: HEK293, tau phosphorylation
Outline: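 Cell-based service assay: HEK 293 cells transiently expressing human DYRK1A and tau were treated with compound and lysed. Released tau was plate-captured and its phosphorylation quantified by ELISA with a phospho-tau-specific antibody.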

LRRK2 (G2019S) = LRRK2 (G2019S) (Homo sapiens, UniProt Q5S007, G2019S); assay: LRRK2 G2019S enzyme inhibition, ADP-Glo kinase assay; assay type: biochemical; parameters: purchased SignalChem L10-12GG; details: ATP 25 μM
LRRK2 (G2019S), sequence (Q5S007 970-2527 G2019S limits assumed): as the sequence (Q5S007 970-2527 limits assumed) above, with G1050S counted along it
Outline: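 IC50 derived from luminescent ADP-Glo readout against untreated solvent control, twelve final compound concentrations from 50 μM downward. Reaction: recombinant human LRRK2 G2019S enzyme, 25 μM ATP, substrate, pH 7.4 Tris buffer with MgCl2/BSA/DTT, 25° C. for 2 hours.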

CLK1 = biological target: T4, CLK1 (Homo sapiens, UniProt P49759); assay: Kinase HotSpot service (Reaction Biology Corporation), CLK1; assay type: biochemical; details: ATP 10 uM, read-out: CLK1 IC50 (values indicated by *)
T4 construct: purchased DiscoverX Corp. (ScanMAX Kinase analysis panel, service)
T4 sequence (P49759 whole entry): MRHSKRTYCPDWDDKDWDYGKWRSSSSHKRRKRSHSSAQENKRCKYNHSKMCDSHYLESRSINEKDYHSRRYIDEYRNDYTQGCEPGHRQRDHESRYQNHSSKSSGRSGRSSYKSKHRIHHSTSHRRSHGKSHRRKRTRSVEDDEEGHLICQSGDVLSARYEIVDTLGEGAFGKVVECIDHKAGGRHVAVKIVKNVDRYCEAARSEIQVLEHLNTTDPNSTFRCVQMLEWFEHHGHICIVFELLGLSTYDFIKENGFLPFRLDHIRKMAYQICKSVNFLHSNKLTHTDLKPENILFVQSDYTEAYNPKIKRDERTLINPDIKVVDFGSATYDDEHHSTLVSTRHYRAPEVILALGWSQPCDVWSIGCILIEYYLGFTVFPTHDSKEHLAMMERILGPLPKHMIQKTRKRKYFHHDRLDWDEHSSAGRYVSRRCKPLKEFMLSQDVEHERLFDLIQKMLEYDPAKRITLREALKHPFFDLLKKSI
Procedure: as §1, §2

MDA-MB-231 cell line = assay: Inhibition of proliferation of MDA-MB-231 cancer cells (Cell Titer-Glo); assay type: cell-based; details: Homo sapiens, 72 hours
Outline: as §3

LRRK2 [2] = biological target: T2, LRRK2; assay: Kinase HotSpot service (Reaction Biology Corporation), LRRK2; assay type: biochemical; parameters: purchased DiscoverX Corp. (ScanMAX Kinase analysis panel, service); details: ATP 10 uM, read-out: LRRK2 IC50 (values indicated by *)
Procedure: as §1, §2
Target sequence in this assay (Q5S007 whole entry): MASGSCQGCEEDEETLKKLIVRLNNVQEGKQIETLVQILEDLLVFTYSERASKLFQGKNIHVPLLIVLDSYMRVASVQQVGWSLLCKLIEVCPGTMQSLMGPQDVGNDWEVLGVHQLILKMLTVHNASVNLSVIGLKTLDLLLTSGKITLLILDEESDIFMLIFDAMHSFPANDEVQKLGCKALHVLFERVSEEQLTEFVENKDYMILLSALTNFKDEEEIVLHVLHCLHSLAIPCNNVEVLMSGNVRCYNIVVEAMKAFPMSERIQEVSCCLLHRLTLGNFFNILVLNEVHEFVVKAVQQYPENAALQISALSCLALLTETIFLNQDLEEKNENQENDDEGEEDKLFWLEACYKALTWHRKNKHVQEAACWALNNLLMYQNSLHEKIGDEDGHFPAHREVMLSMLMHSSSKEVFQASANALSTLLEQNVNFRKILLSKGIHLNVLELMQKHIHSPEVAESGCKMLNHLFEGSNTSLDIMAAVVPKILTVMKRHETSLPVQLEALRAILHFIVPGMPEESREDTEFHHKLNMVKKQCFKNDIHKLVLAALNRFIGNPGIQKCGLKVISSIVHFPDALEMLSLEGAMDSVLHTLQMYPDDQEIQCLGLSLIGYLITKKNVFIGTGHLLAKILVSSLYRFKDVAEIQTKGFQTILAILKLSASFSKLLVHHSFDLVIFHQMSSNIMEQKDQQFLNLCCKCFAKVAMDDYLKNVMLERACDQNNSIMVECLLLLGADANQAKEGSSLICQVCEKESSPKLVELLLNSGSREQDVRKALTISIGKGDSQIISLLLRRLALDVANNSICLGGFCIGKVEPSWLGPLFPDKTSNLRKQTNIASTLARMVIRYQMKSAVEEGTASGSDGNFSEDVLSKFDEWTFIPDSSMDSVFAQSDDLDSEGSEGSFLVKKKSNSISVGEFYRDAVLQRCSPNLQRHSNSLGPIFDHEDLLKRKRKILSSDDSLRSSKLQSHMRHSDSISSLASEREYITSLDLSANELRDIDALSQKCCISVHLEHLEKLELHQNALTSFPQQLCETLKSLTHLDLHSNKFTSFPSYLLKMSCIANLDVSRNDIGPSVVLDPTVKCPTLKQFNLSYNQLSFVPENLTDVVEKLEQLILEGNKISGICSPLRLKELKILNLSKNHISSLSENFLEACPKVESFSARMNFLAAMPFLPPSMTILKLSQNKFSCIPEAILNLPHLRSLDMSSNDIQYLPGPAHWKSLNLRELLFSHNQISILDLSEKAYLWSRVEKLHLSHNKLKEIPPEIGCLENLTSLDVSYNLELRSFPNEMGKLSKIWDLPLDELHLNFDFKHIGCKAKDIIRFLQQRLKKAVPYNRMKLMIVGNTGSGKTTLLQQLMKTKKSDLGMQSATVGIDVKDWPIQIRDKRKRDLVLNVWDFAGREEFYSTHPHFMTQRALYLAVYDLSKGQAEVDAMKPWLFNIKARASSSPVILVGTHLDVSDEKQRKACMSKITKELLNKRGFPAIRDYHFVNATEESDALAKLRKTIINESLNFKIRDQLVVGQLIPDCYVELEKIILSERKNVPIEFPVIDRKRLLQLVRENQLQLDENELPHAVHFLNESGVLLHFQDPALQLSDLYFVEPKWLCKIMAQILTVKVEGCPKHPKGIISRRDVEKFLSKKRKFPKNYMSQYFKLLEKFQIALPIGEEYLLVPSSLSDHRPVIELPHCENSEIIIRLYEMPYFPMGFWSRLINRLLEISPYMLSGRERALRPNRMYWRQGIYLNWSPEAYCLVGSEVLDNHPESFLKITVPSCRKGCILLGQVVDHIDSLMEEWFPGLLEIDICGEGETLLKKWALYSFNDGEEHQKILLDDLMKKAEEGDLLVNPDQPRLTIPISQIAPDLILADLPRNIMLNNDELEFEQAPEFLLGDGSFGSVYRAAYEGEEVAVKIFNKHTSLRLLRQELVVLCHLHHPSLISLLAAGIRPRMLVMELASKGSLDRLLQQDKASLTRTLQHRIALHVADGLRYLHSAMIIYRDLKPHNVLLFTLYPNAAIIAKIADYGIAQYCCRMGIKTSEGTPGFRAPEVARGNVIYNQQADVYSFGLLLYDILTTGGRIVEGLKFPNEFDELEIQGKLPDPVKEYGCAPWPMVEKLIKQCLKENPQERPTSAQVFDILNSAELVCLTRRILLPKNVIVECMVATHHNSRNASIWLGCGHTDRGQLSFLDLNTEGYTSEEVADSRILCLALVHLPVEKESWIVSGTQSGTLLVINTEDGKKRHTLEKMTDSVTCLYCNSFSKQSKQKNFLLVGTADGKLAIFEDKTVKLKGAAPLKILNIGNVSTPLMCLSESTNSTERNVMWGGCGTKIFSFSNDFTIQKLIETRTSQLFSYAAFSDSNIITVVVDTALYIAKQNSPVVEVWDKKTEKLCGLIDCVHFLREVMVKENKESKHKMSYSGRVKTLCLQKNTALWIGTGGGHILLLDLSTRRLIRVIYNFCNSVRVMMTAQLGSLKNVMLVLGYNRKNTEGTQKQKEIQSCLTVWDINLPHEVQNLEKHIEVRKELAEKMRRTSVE

[3] = Homo sapiens, MDA-MB-468, 72 hours

SMILES	IC50 (human GST-CLK1)	IC50 (DYRK1)	GI50 (MDA-MB-468 cell line; [3])	IC50 (LRRK2 [1])	further results
N#Cc1c[nH]c2nc(Nc3ccc(C(=O)N4CCOCC4)c4c3OCCO4)nc(C3CC3)c12 [Example 220, 4-cyclopropyl-2-((8-(morpholine-4-carbonyl)-2,3-dihydrobenzo[b][1,4]dioxin-5-yl)amino)-7H-pyrrolo[2,3-d]pyrimidine-5-carbonitrile]	< 100 nM	< 100 nM	101 to 300 nM	< 100 nM	–
COc1cc(P(C)(C)=O)ccc1Nc1nc(C2CC2)c2c(C(F)(F)F)c[nH]c2n1 [Example 229, (4-((4-cyclopropyl-5-(trifluoromethyl)-7H-pyrrolo[2,3-d]pyrimidin-2-yl)amino)-3-methoxyphenyl)dimethylphosphine oxide]	101 to 300 nM	< 100 nM	–	–	–
COc1cc(P2(=O)CCN(C3CC3)CC2)ccc1Nc1nc(C2CC2)c2c(C(F)(F)F)c[nH]c2n1 [Example 394, 1-cyclopropyl-4-(4-((4-cyclopropyl-5-(trifluoromethyl)-7H-pyrrolo[2,3-d]pyrimidin-2-yl)amino)-3-methoxyphenyl)-1,4-azaphosphinane4-oxide]	301 to 1000 nM	< 100 nM	301 to 1000 nM	< 100 nM	–
CCc1nc(Nc2ccc(C(=O)N3CCC(N4CCOCC4)CC3)c3c2OCCO3)nc2[nH]cc(C(F)(F)F)c12 [Example 395, (8-((4-ethyl-5-(trifluoromethyl)-7H-pyrrolo[2,3-d]pyrimidin-2-yl)amino)-2,3-dihydrobenzo [b][1,4]dioxin-5-yl)(4-morpholino-piperidin-1-yl)methanone]	101 to 300 nM	< 100 nM	–	< 100 nM	–
CCc1nc(Nc2ccc(P3(=O)CCN(C4CC4)CC3)cc2OC)nc2[nH]cc(C(F)(F)F)c12 [Example 396, 1-cyclopropyl-4-(4-((4-ethyl-5-(trifluoromethyl)-7H-pyrrolo[2,3-d]pyrimidin-2-yl)amino)-3-methoxyphenyl)-1,4-azaphosphinane-4-oxide]	301 to 1000 nM	< 100 nM	–	101 to 300 nM	–
CCCNc1nc(Nc2ccc(C(=O)N3CCN(C4COC4)CC3)c3c2OCCO3)nc2[nH]cc(C(F)(F)F)c12 [Example 402, (4-(oxetan-3-yl)piperazin-1-yl)(8-((4-(propylamino)-5-(trifluromethyl)-7H-pyrrolo[2,3-d]pyrimidin-2-yl)amino)-2,3-dihydrobenzo[b] [1,4]dioxin-5-yl)methanone]	< 100 nM	–	–	–	IC50 (human GST-DYRK1A): < 100 nM; GI50 (MDA-MB-468 cell line; 72 hours): 301 to 1000 nM; THP1/IL6 (% inhib) (IL-6): 18.2 % inhib; THP-1/TNF-α (% inhib) (TNF-α): 1.4 % inhib; % inhibition at 0.25 uM (human DYRK1A and tau; tau phosphorylation, compound 0.25 uM): 7.9%; % inhibition at 0.5 uM (human DYRK1A and tau; tau phosphorylation, compound 0.5 uM): 26.5%; % inhibition at 1 uM (human DYRK1A and tau; tau phosphorylation, compound 1 uM): 61.7%; IC50 (LRRK2 (G2019S)): < 100 nM

Continued, in another order:

IC50 (human GST-CLK1)	IC50 (DYRK1)	GI50 (MDA-MB-468 cell line; [3])	IC50 (LRRK2 [1])	SMILES	further results
–	< 100 nM	101 to 300 nM	–	C=CCNc1nc(Nc2ccc(S(=O)(=O)N3CCC(N4CCOCC4)CC3)cc2OC)nc2[nH]cc(C(F)(F)F)c12 [Example 469, N^4-allyl-N2-(2-methoxy-4-((4-morpholino-piperidin-1-yl)sulfonyl)phenyl)-5-(trifluoromethyl)-7H-pyrrolo[2,3-d]pyrimidine-2,4-diamine]	IC50 (CLK1): < 100 nM; GI50 (MDA-MB-231 cell line): 101 to 300 nM; IC50 (LRRK2 (G2019S)): < 100 nM; IC50 (LRRK2 [2]): < 100 nM
301 to 1000 nM	< 100 nM	–	–	O=S(=O)(c1ccc(Nc2nc(C3CC3)c3c(C(F)(F)F)c[nH]c3n2)c2c1OCCO2)N1CCOCC1 [Example 470, 4-cyclopropyl-N-(8-(morpho-linosulfonyl)-2,3-dihydrobenzo [b][1,4]dioxin-5-yl)-5-(trifluoromethyl)-7H-pyrrolo[2,3-d]pyrimidin-2-amine]	inhibition at 1 µM (human DYRK1A and tau): 29.1%; inhibition at 0.25 µM (human DYRK1A and tau; compound 0.25 uM): 5.8%; inhibition at 0.5 µM (human DYRK1A and tau; compound 0.5 uM): 19.2%
< 100 nM	< 100 nM	–	–	O=C(c1ccc(Nc2nc(C3CC3)c3c(C(F)(F)F)c[nH]c3n2)c2c1CCO2)N1CC[C@@H](N2CCOCC2)C1 [Example 471, (R)-(7-((4-cyclopropyl-5-(trifluoromethyl)-7H-pyrrolo[2,3-d]pyrimidin-2-yl)amino)-2,3-dihydrobenzo-furan-4-yl)(3-morpholino-pyrrolidin-1-yl)methanone]	inhibition at 1 µM (human DYRK1A and tau): 42.8%; inhibition at 0.25 µM (human DYRK1A and tau; compound 0.25 uM): 3.9%; inhibition at 0.5 µM (human DYRK1A and tau; compound 0.5 uM): 29.6%
